Assay results from patent US20020016341A1, “Heterocyclic thioester and ketone hair growth compositions and uses” (priority 1998, published 2002).
Read-outs that look alike come from different tables or passages of the source.

Assays:
FKBP12 = FKBP12 (Homo sapiens, UniProt P62942); test: Ki test: inhibition of peptidyl-prolyl isomerase (rotamase) activity, chymotrypsin-coupled assay; assay type: biochemical
Excerpt: The inhibition of the prolyl peptidyl cis-trans isomerase activity of FKBP may be measured as an indicator of this affinity.
Inhibition of the peptidyl-prolyl isomerase (rotamase) activity of the compounds used in the inventive methods and pharmaceutical compositions can be evaluated by known methods described in the literature (Harding et al., Nature, 1989, 341:758-760; Holt et al. J. Am. Chem. Soc., 115:9923-9938).
The cis-trans isomerization of an alanine-proline bond in a model substrate, N-succinyl-Ala-Ala-Pro-Phe-p-nitroanilide, is monitored spectrophotometrically in a chymotrypsin-coupled assay, which releases paranitroanilide from the trans form of the substrate. The inhibition of this reaction caused by the addition of different concentrations of inhibitor is determined, and the data is analyzed as a change in first-order rate constant as a function of inhibitor concentration to yield the apparent K1 values.
In a plastic cuvette are added […] of ice cold assay buffer (25 mM HEPES, pH 7.8, 100 mM NaCl), 10 mL of FKBP (2.5 mM in 10 mM Tris-Cl pH 7.5, 100 mM NaCl, 1 mM dithiothreitol), 25 mL of chymotrypsin (50 mg/ml in 1 mM HCl) and […] of test compound at various concentrations in dimethyl sulfoxide. The reaction is initiated by the addition of 5 mL of substrate (succinyl-Ala-Phe-Pro-Phe-para-nitroanilide, 5 mg/mL in 2.35 mM LiCl in trifluoroethanol).
The absorbance at 390 nm versus time is monitored for 90 seconds using a spectrophotometer and the rate constants are determined from the absorbance versus time data files.

C57 black 6 mice [1] = test: In vivo hair generation test, Experiment A; settings: 30 μM topical, 3 applications over 5 days, after six weeks
Excerpt: Care was taken not to nick or cause abrasion to the underlaying dermal layers. The animals were in anagen growth phase, as indicated by the pinkish color of the skin. […] Hair growth was quantitated by the percent of shaved area covered by new hair growth during this time period.

C57 black 6 mice [2] = test: In vivo hair generation test, Experiment B; settings: one micromole per milliliter topical, three times per week, 14 days after initiation of treatment
Experimental: Care was taken not to nick or cause abrasion to the underlying dermal layers. The animals were in anagen growth phase when shaved. […] The animals were treated three times per week, and hair growth was evaluated 14 days after initiation of treatment.

[3] = apparent Ki, rotamase inhibition, read-out: Ki

Chain of FKBP12 (P62942 whole entry, species assumed): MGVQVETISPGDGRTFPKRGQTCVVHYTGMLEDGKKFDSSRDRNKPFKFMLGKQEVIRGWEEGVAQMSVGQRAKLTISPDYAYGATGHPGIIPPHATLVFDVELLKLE

Row | Molecule | Ki (FKBP12; [3]) | also measured
1 | 1,5-Diphenyl-3-pentyl 1-(3,3-dimethyl-1,2-dioxopentyl)-2-piperidinecarbothioate [Compound 40] | 1230 nM | 
2 | CCC(C)(C)C(=O)C(=O)N1CCC[C@H]1C(=O)OCCCc1cccnc1 [GPI 1046, 3-(3-pyridyl)-1-propyl (2s)-1-(3,3-dimethyl-1,2-dioxopentyl)-2-pyrrolidinecarboxylate] |  | hair regrowth in shaved area (C57 black 6 mice [1]): essentially complete hair regrowth
3 | 3-(1-Naphthyl)propyl (2S)-1-(3,3-dimethyl-2-oxopentanoyl)-2-pyrrolidinecarbothioate [Compound 47] | 21 nM | 
4 | 2-Phenyl-1-ethyl (2S)-1-(2-cyclohexyl-1,2-dioxoethyl)-2-pyrrolidinecarbothioate [Compound 12] | 442 nM | 
5 | CCC(C)(C)C(=O)C(=O)N1CCC[C@H]1C(=O)SCc1csc2ccccc12 [Compound 11, (3-Thioindolyl)methyl (2S)-1-(3,3-dimethyl-1,2-dioxopentyl)-2-pyrrolidinecarbothioate] | 299 nM | 
6 | CCC(C)(C)C(=O)C(=O)N1CCC[C@H]1C(=O)CCCC(c1ccc(F)cc1)c1ccc(F)cc1 [Compound 70, 1-{(2S)-2-[5,5-di(4-Fluorophenyl)pentanoyl]-2-pyrrolidine}-3,3-dimethyl-1,2-pentanedione] | 457 nM | 
7 | CCC(C)(C)C(=O)C(=O)N1CCC[C@H]1C(=O)CCCCc1ccccc1 [Compound 1] | 31 nM | 
8 | 4-Phenyl-1-butyl (2S)-1-(2-cyclohexyl-1,2-dioxoethyl)-2-pyrrolidinecarbothioate [Compound 33] | 1700 nM | 
9 | 3-(para-Methoxyphenyl)-1-propyl 1-(2-phenyl-1,2-dioxoethyl)piperidine-2-carbothioate [Compound 43] | 259 nM | 
10 | 3-Phenyl-1-propyl 1-(3,3-dimethyl-1,2-dioxobutyl)-2-piperidinecarbothioate [Compound 29] | 59 nM | 
11 | CCC(C)(C)C(=O)C(=O)N1CCC[C@H]1C(=O)SCCC(c1ccc(F)cc1)c1ccc(F)cc1 [Compound 45, 3,3-Di(para-fluoro)phenyl-1-propyl (2S)-1-(3,3-dimethyl-1,2-dioxopentyl)-2-pyrrolidinecarbothioate] | 31 nM | 
12 | 4-Phenyl-1-butyl (2S)-1-(3,3-dimethyl-1,2-dioxopentyl)-2-pyrrolidinecarbothioate [Compound 34] | 34 nM | 
13 | CCC(C)(C)C(=O)C(=O)N1CCC[C@H]1C(=O)SCCC(c1ccccc1)c1ccccc1 [GPI 1234] |  | hair growth (relative hair growth index, FIG. 5) (C57 black 6 mice [2]): dramatic hair growth
14 | 4,4-Di(para-fluorophenyl)butyl 1-(3,3-dimethyl-2-oxopentanoyl)-2-pyrrolidinecarbothioate [Compound 46] | 757 nM | 
15 | 2-Phenyl-1-ethyl 1-(2-phenyl-1,2-dioxoethyl)-2-piperidinecarbothioate [Compound 14] | 313 nM | 
16 | 3-Phenyl-1-propyl (2S)-1-(2-cyclohexyl-1,2-dioxoethyl)-2-pyrrolidinecarbothioate [Compound 32] | 362 nM | 

Row | Molecule | Ki (FKBP12; [3]) | also measured
17 | 3-(3-Fluorophenyl)propyl (2S)-1-(3,3-dimethyl-2-oxopentanoyl)-2-pyrrolidinecarbothioate [Compound 58] | 79 nM | 
18 | 4-Phenyl-1-butyl 1-(1,2-dioxo-3,3-dimethylbutyl)-2-piperidinecarbothioate [Compound 39] | 347 nM | 
19 | 3-(2-Fluorophenyl)propyl (2S)-1-(3,3-dimethyl-2-oxopentanoyl)-2-pyrrolidinecarbothioate [Compound 57] | 57 nM | 
20 | 2,2-Diphenylethyl (2S)-1-(3,3-dimethyl-2-oxopentanoyl)-2-piperidinecarbothioate [Compound 49] | 1330 nM | 
21 | 3-(1-Naphthyl)-1-propyl 1-(3,3-dimethyl-1,2-dioxopentyl)piperidine-2-carbothioate [Compound 44] | 188 nM | 
22 | CCC(C)(C)C(=O)C(=O)N1CCCCC1C(=O)SCCCc1ccc2ccccc2c1 [Compound 53, 3-(2-Naphthyl)propyl (2R,S)-1-(3,3-dimethyl-2-oxopentanoyl)-2-piperidinecarbothioate] | 261 nM | 
23 | 2-Phenyl-1-ethyl (2S)-1-(1-cyclopentyl-1,2-dioxoethyl)-2-pyrrolidinecarbothioate [Compound 28] | 108 nM | 
24 | 3-(3-Fluorophenyl)propyl 1-(3,3-dimethyl-2-oxopentanoyl)-2-piperidinecarbothioate [Compound 64] | 163 nM | 
25 | 3-(2-Chlorophenyl)propyl (2S)-1-(3,3-dimethyl-2-oxopentanoyl)-2-pyrrolidinecarbothioate [Compound 61] | 139 nM | 
26 | 4-Phenylbutyl 1-(3,3-dimethyl-2-oxopentanoyl)-2-piperidinecarbothioate [Compound 59] | 962 nM | 
27 | CC(C)(C)C(=O)C(=O)N1CCCCC1C(=O)C(CCc1ccccc1)CCc1ccccc1 (centres unmarked) [Compound 69] |  | Ki (FKBP12): 49 nM
28 | O=C(C(=O)N1CCCCC1C(=O)CCCCCc1ccccc1)C1CCCCC1 (centres unmarked) [Compound 68] |  | Ki (FKBP12): 284 nM
29 | 3-Phenylpropyl 1-(3,3-dimethyl-2-oxopentanoyl)-2-piperidinecarbothioate [Compound 60] | 90 nM | 
30 | 3-(3-Chlorophenyl)propyl (2S)-1-(3,3-dimethyl-2-oxopentanoyl)-2-pyrrolidinecarbothioate [Compound 54] | 37 nM | 
31 | 3-(3-Pyridyl)-1-propyl (2S)-1-(2-cyclohexyl-1,2-dioxoethyl)-2-pyrrolidinecarbothioate [Compound 35] | 62 nM | 
32 | 2-Phenyl-1-ethyl 1-(3,3-dimethyl-1,2-dioxopentyl)-2-piperidinecarbothioate [Compound 10] | 12 nM | 
